The target in one assay is PHD1 (EGLN2) (Homo sapiens (Human), UniProt Q96KS0). The experiment in a line: HIF-PH assay (14CO2 capture), PHD1 enzyme inhibition. As to conditions: for IC50: individual measurement, read-out: IC50 (μM) PHD1. Type of assay: biochemical. An excerpt:
(§1) Ketoglutaric acid α-[1-^14C]-sodium salt, alpha-ketoglutaric acid sodium salt, and HPLC purified peptide may be obtained from commercial sources, e.g., Perkin-Elmer (Wellesley Mass.), Sigma-Aldrich, and SynPep Corp. (Dublin Calif.), respectively. Peptides for use in the assay may be fragments of HIFα as described above or as disclosed in International Publication WO 2005/118836, incorporated by reference herein. HIF-pH, e.g., PHD1 (EGLN2) or PHD2 (EGLN1), can be expressed in, e.g., insect Hi5 cells, and partially purified, e.g., through a SP ion exchange chromatography column. Enzyme activity is determined by capturing ^14CO2 using an assay described by Kivirikko and Myllyla (1982, Methods Enzymol. 82:245-304). Assay reactions contain 50 mM HEPES (pH 7.4), 100 μM α-ketoglutaric acid sodium salt, 0.30 mCi/mL ketoglutaric acid α-[1-^14C]-sodium salt, 40 μM FeSO4, 1 mM ascorbate, 1541.8 units/mL Catalase, with or without 50 μM peptide substrate and various concentrations of compound of the invention. Reactions are initiated by addition of HIF-PH enzyme.
(§2) The peptide-dependent percent turnover is calculated by subtracting percent turnover in the absence of peptide from percent turnover in the presence of substrate peptide. Percent inhibition and IC50 are calculated using peptide-dependent percent turnover at given inhibitor concentrations. Calculation of IC50 values for each inhibitor is conducted using GraFit software (Erithacus Software Ltd., Surrey UK).
(§3) The PHD2/PHD1 is the ratio of the IC50 of the compound for each enzyme.

For a further assay, the target named is PHD2 (EGLN1) (Homo sapiens (Human), UniProt Q9GZT9). The experiment in a line: HIF-PH assay (14CO2 capture), PHD2 enzyme inhibition. The class given is biochemical. As to conditions: Table 1; individual measurement; read-out: IC50 (μM) PHD2.
Sequence of PHD2 (EGLN1) (Q9GZT9 whole entry): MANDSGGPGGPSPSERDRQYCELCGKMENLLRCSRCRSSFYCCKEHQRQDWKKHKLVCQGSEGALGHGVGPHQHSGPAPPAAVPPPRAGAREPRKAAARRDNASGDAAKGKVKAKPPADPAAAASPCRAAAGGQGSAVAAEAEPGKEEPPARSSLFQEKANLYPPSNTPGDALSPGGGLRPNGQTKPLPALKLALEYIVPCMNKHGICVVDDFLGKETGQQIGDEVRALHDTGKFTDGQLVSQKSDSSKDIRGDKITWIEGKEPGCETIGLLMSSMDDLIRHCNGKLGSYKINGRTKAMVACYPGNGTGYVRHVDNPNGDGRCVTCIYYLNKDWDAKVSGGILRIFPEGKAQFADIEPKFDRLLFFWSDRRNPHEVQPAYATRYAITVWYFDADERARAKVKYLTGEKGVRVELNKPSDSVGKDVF
Text: as §1, §2, §3

Where [1] appears, read: Table 1, ratio of the IC50 of the compound for each enzyme.
[2] abbreviates: Table 2 comparative data, IC50 PHD2/IC50 PHD1.

Sequence of PHD1 (EGLN2) (Q96KS0 whole entry, the tested form may be a part): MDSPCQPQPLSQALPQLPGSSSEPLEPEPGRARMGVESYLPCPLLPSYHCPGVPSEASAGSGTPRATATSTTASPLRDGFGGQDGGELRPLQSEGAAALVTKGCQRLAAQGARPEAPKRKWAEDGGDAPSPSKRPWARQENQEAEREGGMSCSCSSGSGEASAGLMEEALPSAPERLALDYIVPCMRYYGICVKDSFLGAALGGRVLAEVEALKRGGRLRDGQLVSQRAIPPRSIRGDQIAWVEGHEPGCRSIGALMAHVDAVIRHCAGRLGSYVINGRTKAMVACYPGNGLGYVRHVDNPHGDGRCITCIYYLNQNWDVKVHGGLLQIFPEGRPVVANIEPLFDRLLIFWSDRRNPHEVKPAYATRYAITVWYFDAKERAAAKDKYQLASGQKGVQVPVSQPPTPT

The term IC50 denotes the midpoint of a concentration-inhibition curve. Consider `N#Cc1nc(C(=O)N[C@H]2CCCC[C@H]2C(=O)O)c(O)c2ccc(Oc3ccccc3)cc12` (relative stereo) [Compound 32, cis-2-(1-Cyano-4-hydroxy-7-phenoxyisoquinoline-3-carboxamido)cyclohexanecarboxylic acid], for which the IC50 worked out at 27.9 µM on PHD1 (EGLN2) (Table 1) and 182 µM on PHD2 (EGLN1). In addition, the PHD2/PHD1 at PHD1 (EGLN2) (setting [1]) is 6.

As for `N#Cc1nc(C(=O)N[C@H]2CCC[C@H]2C(=O)O)c(O)c2ccc(Oc3ccccc3)cc12` (relative stereo) [Compound 33, cis-2-[(1-Cyano-4-hydroxy-7-phenoxy-isoquinoline-3-carbonyl)-amino]-cyclopentanecarboxylic acid], the figures for the IC50 at PHD1 (EGLN2) (Table 1) and at PHD2 (EGLN1) were 16.9 µM and 94.8 µM, respectively. The PHD2/PHD1 at PHD1 (EGLN2) (setting [1]) turned out to be 6.

`O=C(O)CCNC(=O)c1ncc2cc(Oc3ccccc3)ccc2c1O` [Compound 1, 3-[(4-Hydroxy-7-phenoxy-isoquinoline-3-carbonyl)-amino]propionic acid]: the figures for the IC50 at PHD1 (EGLN2) (Table 1) and at PHD2 (EGLN1) were 0.92 µM and 10.3 µM, respectively. Moreover, the PHD2/PHD1 on PHD1 (EGLN2) (setting [1]) and on PHD1 (EGLN2) (setting [2]) was 11 in each case.

Take `CC(C)(CNC(=O)c1ncc2cc(Oc3ccccc3)ccc2c1O)C(=O)O` [Compound 2, 3-[(4-Hydroxy-7-phenoxy-isoquinoline-3-carbonyl)-amino]-2,2-dimethyl-propionic acid]: the IC50 at PHD1 (EGLN2) (Table 1) is 5.5 µM; at PHD2 (EGLN1), 46.7 µM. On PHD1 (EGLN2) (setting [1]), the PHD2/PHD1 was determined as 8.

Regarding `O=C(NC[C@H](O)C(=O)O)c1ncc2cc(Oc3ccccc3)ccc2c1O` [Compound 3, 2-(S)-Hydroxy-3-[(4-hydroxy-7-phenoxy-isoquinoline-3-carbonyl)-amino]propionic acid], the values for the IC50 at PHD1 (EGLN2) (Table 1) and on PHD2 (EGLN1) were 1.08 µM and 15.6 µM, respectively. For the same compound, the PHD2/PHD1 at PHD1 (EGLN2) (setting [1]) and on PHD1 (EGLN2) (setting [2]) was 14 each time.

In the case of `O=C(O)CCCNC(=O)c1ncc2cc(Oc3ccccc3)ccc2c1O` [Compound 4, 4-[(4-Hydroxy-7-phenoxy-isoquinoline-3-carbonyl)-amino]-butyric acid], the IC50 at PHD1 (EGLN2) (Table 1) amounted to 1.17 µM; on PHD2 (EGLN1), 7 µM. Besides, at PHD1 (EGLN2) (setting [1]), the PHD2/PHD1 is given as 6.

Turning to `O=C(O)CCCCNC(=O)c1ncc2cc(Oc3ccccc3)ccc2c1O` [Compound 5, 5-[(4-Hydroxy-7-phenoxy-isoquinoline-3-carbonyl)-amino]-pentanoic acid], the concentration for half-maximal inhibition (IC50) came out at 2.75 µM on PHD1 (EGLN2) (Table 1) and 61.7 µM at PHD2 (EGLN1). At PHD1 (EGLN2) (setting [1]), the PHD2/PHD1 came to 22.

Regarding `CC(C)(CC(=O)O)NC(=O)c1ncc2cc(Oc3ccccc3)ccc2c1O` [Compound 6, 3-[(4-Hydroxy-7-phenoxy-isoquinoline-3-carbonyl)-amino]-3-methyl-butyric acid], the figures for the IC50 on PHD1 (EGLN2) (Table 1) and at PHD2 (EGLN1) were 8.19 µM and 192 µM, respectively. The PHD2/PHD1 at PHD1 (EGLN2) (setting [1]) and on PHD1 (EGLN2) (setting [2]) was 23 each time.

`O=C(NCC[C@H](O)C(=O)O)c1ncc2cc(Oc3ccccc3)ccc2c1O` [Compound 7, 2-(S)-Hydroxy-4-[(4-hydroxy-7-phenoxy-isoquinoline-3-carbonyl)-amino]-butyric acid]: the IC50 on PHD1 (EGLN2) (Table 1) was found to be 3.02 µM; at PHD2 (EGLN1), 52.7 µM. Further, the PHD2/PHD1 on PHD1 (EGLN2) (setting [1]) turned out to be 17.

In the case of `CC(C)(CCNC(=O)c1ncc2cc(Oc3ccccc3)ccc2c1O)C(=O)O` [Compound 8, 4-[(4-Hydroxy-7-phenoxy-isoquinoline-3-carbonyl)-amino]-2,2-dimethyl-butyric acid], the half-inhibitory concentration (IC50) turned out to be 11.6 µM at PHD1 (EGLN2) (Table 1) and 119 µM on PHD2 (EGLN1). For the same compound, the PHD2/PHD1 on PHD1 (EGLN2) (setting [1]) was 10.

In the case of `N[C@@H](CNC(=O)c1ncc2cc(Oc3ccccc3)ccc2c1O)C(=O)O` [Compound 9, 2-(S)-Amino-3-[(4-hydroxy-7-phenoxy-isoquinoline-3-carbonyl)-amino]-propionic acid], the IC50 on PHD1 (EGLN2) (Table 1) is 33.9 µM; at PHD2 (EGLN1) it was above 200 µM. On PHD1 (EGLN2) (setting [1]), the PHD2/PHD1 is on record as 6.

In the case of `N#Cc1nc(C(=O)NCCC(=O)O)c(O)c2ccc(Oc3ccccc3)cc12` [Compound 10, 3-[(1-Cyano-4-hydroxy-7-phenoxy-isoquinoline-3-carbonyl)-amino]-propionic acid], the IC50 at PHD1 (EGLN2) (Table 1) turned out to be 0.24 µM; on PHD2 (EGLN1), 1.33 µM. Besides, the PHD2/PHD1 on PHD1 (EGLN2) (setting [1]) and on PHD1 (EGLN2) (setting [2]) was 5 each time.

For the compound `CC(CC(=O)O)NC(=O)c1nc(C#N)c2cc(Oc3ccccc3)ccc2c1O` (centres unmarked) [Compound 11, 3-[(1-Cyano-4-hydroxy-7-phenoxy-isoquinoline-3-carbonyl)-amino]butyric acid], the results for the IC50 at PHD1 (EGLN2) (Table 1) and at PHD2 (EGLN1) were 1.37 µM and 56.6 µM, respectively. Besides, the PHD2/PHD1 on PHD1 (EGLN2) (setting [1]) and on PHD1 (EGLN2) (setting [2]) was 41 throughout.

Take `N#Cc1nc(C(=O)NCC2(C(=O)O)CC2)c(O)c2ccc(Oc3ccccc3)cc12` [Compound 12, 1-{[(1-Cyano-4-hydroxy-7-phenoxy-isoquinoline-3-carbonyl)-amino]-methyl}-cyclopropanecarboxylic acid]: the IC50 at PHD1 (EGLN2) (Table 1) came out at 0.17 µM; on PHD2 (EGLN1) it was 1.62 µM. At PHD1 (EGLN2) (setting [1]), the PHD2/PHD1 came out at 9.

In the case of `O=C(NCC1(C(=O)O)CCC1)c1ncc2cc(Oc3ccccc3)ccc2c1O` [Compound 13, 1-{[(4-Hydroxy-7-phenoxy-isoquinoline-3-carbonyl)-amino]-methyl}-cyclobutanecarboxylic acid], the figures for the IC50 at PHD1 (EGLN2) (Table 1) and on PHD2 (EGLN1) were 5.51 µM and 40.8 µM, respectively. For the same compound, the PHD2/PHD1 at PHD1 (EGLN2) (setting [1]) was determined as 7.

`N#Cc1nc(C(=O)NCC2(C(=O)O)CCC2)c(O)c2ccc(Oc3ccccc3)cc12` [Compound 14, 1-{[(1-Cyano-4-hydroxy-7-phenoxy-isoquinoline-3-carbonyl)-amino]-methyl}-cyclobutanecarboxylic acid]: the IC50 at PHD1 (EGLN2) (Table 1) is 0.31 µM; on PHD2 (EGLN1) it was 3.52 µM. The PHD2/PHD1 on PHD1 (EGLN2) (setting [1]) worked out at 11.

For the compound `N#Cc1nc(C(=O)N[C@H](CC(=O)O)Cc2ccccc2)c(O)c2ccc(Oc3ccccc3)cc12` [Compound 67, (S)-3-[(1-Cyano-4-hydroxy-7-phenoxy-isoquinoline-3-carbonyl)-amino]-4-phenyl-butyric acid], the IC50 on PHD1 (EGLN2) (Table 1) is 3.43 µM.

Turning to `N#Cc1nc(C(=O)N[C@@H](CC(=O)O)Cc2ccccc2)c(O)c2ccc(Oc3ccccc3)cc12` [Compound 68, (R)-3-[(1-Cyano-4-hydroxy-7-phenoxy-isoquinoline-3-carbonyl)-amino]-4-phenyl-butyric acid], the IC50 on PHD1 (EGLN2) (Table 1) is 2.27 µM.

On to `CC(C)(CC(=O)O)NC(=O)c1nc(C#N)c2cc(Oc3ccccc3)ccc2c1O` [Compound 82, 3-[(1-Cyano-4-hydroxy-7-phenoxy-isoquinoline-3-carbonyl)-amino]-3-methyl-butyric acid], for which the PHD2/PHD1 on PHD1 (EGLN2) (setting [1]) amounted to 23.

For `O=C(O)CNC(=O)c1ncc2cc(Oc3ccccc3)ccc2c1O` [U.S. Pat. No. 7,323,475; Example D-7, 2-[(4-Hydroxy-7-phenoxy-isoquinoline-3-carbonyl)-amino]-acetic acid, reference compound], the PHD2/PHD1 on PHD1 (EGLN2) (setting [2]) was determined as 1.5.

On PHD1 (EGLN2) (setting [2]), `O=C(O)CNC(=O)c1ncc2cc(Oc3cccnc3)ccc2c1O` [U.S. Pat. No. 7,323,475; Example D-67, 2-{[4-Hydroxy-7-(pyridin-3-yloxy)-isoquinoline-3-carbonyl]-amino}-acetic acid, reference compound] came in with a PHD2/PHD1 of 3.

For `N#Cc1nc(C(=O)NCC(=O)O)c(O)c2ccc(Oc3ccccc3)cc12` [U.S. Pat. No. 7,928,120; Example 3, 2-[(1-Cyano-4-hydroxy-7-phenoxy-isoquinoline-3-carbonyl)-amino]-acetic acid, reference compound], the PHD2/PHD1 on PHD1 (EGLN2) (setting [2]) was found to be 0.4.
